# Measured values taken from patent publication US20250154138A1, “Small Molecule IL-17A Modulators” (BeiGene, Ltd., priority 2022, published 2025).
# Key:
# [1] = test system: IL-17-induced GROα secretion from HT-29 cells; test: GROα release assay in human colorectal adenocarcinoma epithelial cell (HT-29, ELISA); type: cell-based; conditions: Homo sapiens, HT-29, 48 h, 10 ng/mL IL-17A, highest concentration 10 μM, read-out: Cellular assay HT29 cell/CXCL1 IC50
# In short: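 HT-29 cells were exposed 48 h at 37°C to IL-17A (final 10 ng/mL) preincubated 15 min with compound (4-fold dilutions, top 10 μM). Secreted GROα was quantified by ELISA against a standard curve, and IC50 obtained by four-parameter fitting.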
# [2] = target: human IL-17A / human IL-17RA (Homo sapiens (Human), UniProt Q16552); test: Human IL-17A biochemical assay (HTRF, blocking of IL-17A binding to IL-17RA); conditions: 0.4 nM IL-17A, 0.3 nM IL-17RA, max compound concentration 10 uM
# human IL-17A / human IL-17RA, sequence (Q16552 24-155): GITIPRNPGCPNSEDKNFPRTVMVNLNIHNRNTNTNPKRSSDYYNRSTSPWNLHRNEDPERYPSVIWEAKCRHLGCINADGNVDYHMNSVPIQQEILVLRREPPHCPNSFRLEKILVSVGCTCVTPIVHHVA
# In short: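 HTRF competition: 0.4 nM recombinant human IL-17A pre-incubated 3 h at room temperature with compound (top 10 uM, 2.7-fold, 10 points) in HEPES pH 7.5 buffer, then 0.3 nM IL-17RA added for 1 h, then anti-6His-Tb/anti-human IgG-XL665 detection for 1 h.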
Structure (SMILES),IC50 [1] [µM],IC50 [2] [µM]
"CNC(=O)C1(N2C[C@@H](C(C)C)NC2=O)Cc2ccc(NC(=O)C(NC(=O)c3ccnn3C)C3CCCC(C)C3)cc2C1 (stereo partly drawn) [Example 104, N-(2-((2-((R)-4-isopropyl-2-oxoimidazolidin-1-yl)-2-(methylcarbamoyl)-2,3-dihydro-1H-inden-5-yl)amino)-1-(3-methylcyclohexyl)-2-oxoethyl)-1-methyl-1H-pyrazole-5-carboxamide]",0.0236,0.012
"CNC(=O)C1(N2CC(C(C)C)NC2=O)Cc2ccc(NC(=O)[C@@H](NC(=O)c3ccnn3C)C3CCCCC3)cc2C1 (stereo partly drawn) [Example 38, N-((1S)-1-cyclohexyl-2-((2-(4-isopropyl-2-oxoimidazolidin-1-yl)-2-(methylcarbamoyl)-2,3-dihydro-1H-inden-5-yl)amino)-2-oxoethyl)-1-methyl-1H-pyrazole-5-carboxamide]",0.156,0.046
"CNC(=O)C1(N2CC(C(C)(C)C)NC2=O)Cc2ccc(NC(=O)[C@@H](NC(=O)c3ccnn3C)C3CCCCC3)cc2C1 (stereo partly drawn) [Example 44, N-((1S)-2-((2-(4-(tert-butyl)-2-oxoimidazolidin-1-yl)-2-(methylcarbamoyl)-2,3-dihydro-1H-inden-5-yl)amino)-1-cyclohexyl-2-oxoethyl)-1-methyl-1H-pyrazole-5-carboxamide]",0.231,0.047
"CC[C@@H]1CN(C2(C(=O)NC)Cc3cc4nc([C@@H](NC(=O)c5nonc5C)C5CCCCC5)[nH]c4cc3C2)C(=O)N1 [Example 32, N-((1S)-cyclohexyl(6-((R)-4-ethyl-2-oxoimidazolidin-1-yl)-6-(methylcarbamoyl)-1,5,6,7-tetrahydroindeno[5,6-d]imidazol-2-yl)methyl)-4-methyl-1,2,5-oxadiazole-3-carboxamide]",0.135,0.062
"CCn1nccc1C(=O)N[C@H](C(=O)Nc1ccc2c(c1)CC(C(=O)NC)(N1CC3(CC3)CNC1=O)C2)C1CCCCC1 (stereo partly drawn) [Example 154, N-((1S)-1-cyclohexyl-2-((2-(methylcarbamoyl)-2-(6-oxo-5,7-diazaspiro[2.5]octan-5-yl)-2,3-dihydro-1H-inden-5-yl)amino)-2-oxoethyl)-1-ethyl-1H-pyrazole-5-carboxamide]",0.0714,0.028
"CNC(=O)C1(N2CC3(CC3)CNC2=O)Cc2ccc(NC(=O)C(NC(=O)c3ccnn3C)C3CCC(C(C)(F)F)CC3)cc2C1 (stereo not drawn) [Example 143, N-(1-(4-(1,1-difluoroethyl)cyclohexyl)-2-((2-(methylcarbamoyl)-2-(6-oxo-5,7-diazaspiro[2.5]octan-5-yl)-2,3-dihydro-1H-inden-5-yl)amino)-2-oxoethyl)-1-methyl-1H-pyrazole-5-carboxamide]",0.771,0.163
"CNC(=O)C1(N2C(=O)NCC2C)Cc2ccc(NC(=O)[C@@H](NC(=O)c3ccnn3C)C3CCCCC3)cc2C1 (stereo partly drawn) [Example 17, N-((1S)-1-cyclohexyl-2-((2-(5-methyl-2-oxoimidazolidin-1-yl)-2-(methylcarbamoyl)-2,3-dihydro-1H-inden-5-yl)amino)-2-oxoethyl)-1-methyl-1H-pyrazole-5-carboxamide]",2.64,2.5
"Cc1nonc1C(=O)N[C@H](C(=O)Nc1ccc2c(c1)CC(c1cn3ccccc3n1)(N1CC3(CC3)CNC1=O)C2)C1CCC(F)(F)CC1 (stereo partly drawn) [Example 223, N-((1S)-1-(4,4-difluorocyclohexyl)-2-((2-(imidazo[1,2-a]pyridin-2-yl)-2-(6-oxo-5,7-diazaspiro[2.5]octan-5-yl)-2,3-dihydro-1H-inden-5-yl)amino)-2-oxoethyl)-4-methyl-1,2,5-oxadiazole-3-carboxamide]",0.607,0.118
"COCC1(N2CC(C(F)(F)F)NC2=O)Cc2ccc(NC(=O)[C@@H](NC(=O)c3nonc3C)C(C3CC3)C3CC3)cc2C1 (stereo partly drawn) [Example 225, N-((2S)-1,1-dicyclopropyl-3-((2-(methoxymethyl)-2-(2-oxo-4-(trifluoromethyl)imidazolidin-1-yl)-2,3-dihydro-1H-inden-5-yl)amino)-3-oxopropan-2-yl)-4-methyl-1,2,5-oxadiazole-3-carboxamide]",2.32,1.27
